From ChEMBL document CHEMBL1833945, “Synthesis and anticonvulsant activity of new N-Mannich bases derived from 5-cyclopropyl-5-phenyl- and 5-cyclopropyl-5-(4-chlorophenyl)-imidazolidine-2,4-diones” (Bioorg Med Chem, 2011)
Values belong to the compound of their own block, whether it stands above or below them. Activity calls are given as the source filed them. The calls are words filed in the database; no cut-off is given here.

Assays:
[1] = tested on: Rattus norvegicus; assay: Anticonvulsant activity in Sprague-Dawley albino rat assessed as protection against subcutaneous pentylenetetrazole-induced seizures at 50 mg/kg, po after 0.25 hrs; type: functional, organism-based; design: dose 50 mg/kg
[2] = tested on: Mus musculus; assay: Neurotoxicity in CF1 albino mouse assessed as impair in motor coordination at 300 mg/kg, ip after 0.5 hrs by rotarod test; type: toxicity, organism-based; design: dose 300 mg/kg, route intraperitoneal; details: in vivo
[3] = tested on: Mus musculus; assay: Neurotoxicity in ip dosed CF1 albino mouse assessed as minimum dose required to cause impair in motor coordination after 4 hrs by rotarod test; type: toxicity, organism-based; details: in vivo
[4] = tested on: Mus musculus; assay: Anticonvulsant activity in CF1 albino mouse assessed as protection against electrically-induced seizure at 100 mg/kg, ip after 0.5 hrs by 6Hz psychomotor seizure test; type: functional, organism-based; design: dose 100 mg/kg
[5] = tested on: Mus musculus; assay: Anticonvulsant activity in CF1 albino mouse assessed as protection against electrically-induced seizure at 100 mg/kg, ip after 0.25 hrs by 6Hz psychomotor seizure test; type: functional, organism-based; design: dose 100 mg/kg
[6] = Neurotoxicity in oral dosed Sprague-Dawley albino rat assessed as motor impairment by rotarod test; type: toxicity, organism-based; details: in vivo
[7] = tested on: Rattus norvegicus; assay: Anticonvulsant activity in po dosed Sprague-Dawley albino rat assessed as protection against subcutaneous pentylenetetrazole-induced seizures; type: functional
[8] = tested on: Rattus norvegicus; assay: Anticonvulsant activity in po dosed Sprague-Dawley albino rat assessed as time to peak effect; type: functional
[9] = tested on: Rattus norvegicus; assay: Neurotoxicity in Sprague-Dawley albino rat assessed as motor impairment at 50 mg/kg, po after 4 hrs by rotarod test; type: toxicity, organism-based; design: dose 50 mg/kg, route oral; details: in vivo
[10] = tested on: Rattus norvegicus; assay: Neurotoxicity in Sprague-Dawley albino rat assessed as motor impairment at 50 mg/kg, po after 2 hrs by rotarod test; type: toxicity, organism-based; design: dose 50 mg/kg, route oral; details: in vivo
[11] = tested on: Rattus norvegicus; assay: Neurotoxicity in Sprague-Dawley albino rat assessed as motor impairment at 50 mg/kg, po after 1 hrs by rotarod test; type: toxicity, organism-based; design: dose 50 mg/kg, route oral; details: in vivo
[12] = tested on: Rattus norvegicus; assay: Neurotoxicity in Sprague-Dawley albino rat assessed as motor impairment at 50 mg/kg, po after 0.5 hrs by rotarod test; type: toxicity, organism-based; design: dose 50 mg/kg, route oral; details: in vivo
[13] = tested on: Rattus norvegicus; assay: Neurotoxicity in Sprague-Dawley albino rat assessed as motor impairment at 50 mg/kg, po after 0.25 hrs by rotarod test; type: toxicity, organism-based; design: dose 50 mg/kg, route oral; details: in vivo
[14] = tested on: Mus musculus; assay: Anticonvulsant activity in ip dosed CF1 albino mouse assessed as protection against subcutaneous pentylenetetrazole-induced seizures after 4 hrs; type: functional; details: read-out: MED
[15] = tested on: Mus musculus; assay: Anticonvulsant activity in ip dosed CF1 albino mouse assessed as protection against subcutaneous pentylenetetrazole-induced seizures after 0.5 hrs; type: functional; details: read-out: MED
[16] = tested on: Mus musculus; assay: Anticonvulsant activity in CF1 albino mouse assessed as protection against maximal electroshock-induced seizures at 300 mg/kg, ip after 0.5 hrs; type: functional, organism-based; design: dose 300 mg/kg
[17] = tested on: Mus musculus; assay: Anticonvulsant activity in ip dosed CF1 albino mouse assessed as protection against maximal electroshock-induced seizures after 4 hrs; type: functional; details: read-out: MED
[18] = Lipophilicity, log P of compound; type: physicochemical; details: octanol/water
[19] = tested on: Mus musculus; assay: Neurotoxicity in CF1 albino mouse assessed as impair in motor coordination at 300 mg/kg, ip after 4 hrs by rotarod test; type: toxicity, organism-based; design: dose 300 mg/kg, route intraperitoneal; details: in vivo
[20] = tested on: Mus musculus; assay: Anticonvulsant activity in CF1 albino mouse assessed as protection against subcutaneous pentylenetetrazole-induced seizures at 300 mg/kg, […] after 4 hrs; type: functional, organism-based; design: dose 300 mg/kg
[21] = tested on: Rattus norvegicus; assay: Neurotoxicity in Sprague-Dawley albino rat assessed as motor impairment at 30 mg/kg, po after 4 hrs by rotarod test; type: toxicity, organism-based; design: dose 30 mg/kg, route oral; details: in vivo
[22] = tested on: Rattus norvegicus; assay: Neurotoxicity in Sprague-Dawley albino rat assessed as motor impairment at 30 mg/kg, po after 2 hrs by rotarod test; type: toxicity, organism-based; design: dose 30 mg/kg, route oral; details: in vivo
[23] = tested on: Rattus norvegicus; assay: Neurotoxicity in Sprague-Dawley albino rat assessed as motor impairment at 30 mg/kg, po after 1 hrs by rotarod test; type: toxicity, organism-based; design: dose 30 mg/kg, route oral; details: in vivo
[24] = tested on: Rattus norvegicus; assay: Neurotoxicity in Sprague-Dawley albino rat assessed as motor impairment at 30 mg/kg, po after 0.5 hrs by rotarod test; type: toxicity, organism-based; design: dose 30 mg/kg, route oral; details: in vivo
[25] = tested on: Rattus norvegicus; assay: Neurotoxicity in Sprague-Dawley albino rat assessed as motor impairment at 30 mg/kg, po after 0.25 hrs by rotarod test; type: toxicity, organism-based; design: dose 30 mg/kg, route oral; details: in vivo
[26] = tested on: Rattus norvegicus; assay: Anticonvulsant activity in Sprague-Dawley albino rat assessed as protection against maximal electroshock-induced seizures at 30 mg/kg, po after 0.5 hrs; type: functional, organism-based; design: dose 30 mg/kg
[27] = tested on: Rattus norvegicus; assay: Anticonvulsant activity in Sprague-Dawley albino rat assessed as protection against maximal electroshock-induced seizures at 30 mg/kg, po after 0.25 hrs; type: functional, organism-based; design: dose 30 mg/kg
[28] = tested on: Mus musculus; assay: Anticonvulsant activity in ip dosed CF1 albino mouse assessed as protection against maximal electroshock-induced seizures after 0.5 hrs; type: functional; details: read-out: MED
[29] = tested on: Mus musculus; assay: Toxicity in subcutaneous pentylenetetrazole-induced CF1 albino mouse assessed as myoclonic jerks at 100 mg/kg, ip after 0.5 hrs; type: organism-based; design: dose 100 mg/kg; details: in vivo, sc
[30] = tested on: Mus musculus; assay: Toxicity in subcutaneous pentylenetetrazole-induced CF1 albino mouse assessed as myoclonic jerks at 300 mg/kg, ip after 4 hrs; type: organism-based; design: dose 300 mg/kg; details: in vivo, sc
[31] = tested on: Mus musculus; assay: Neurotoxicity in CF1 albino mouse assessed as loss of rotard grasping at 300 mg/kg, ip after 4 hrs by rotarod test; type: toxicity, organism-based; design: dose 300 mg/kg, route intraperitoneal; details: in vivo
[32] = tested on: Mus musculus; assay: Neurotoxicity in ip dosed CF1 albino mouse assessed as minimum dose required to cause impair in motor coordination after 0.5 hrs by rotarod test; type: toxicity, organism-based; details: in vivo

logP [18]: 2.63
Structure (SMILES): O=C1NC(=O)C(c2ccc(Cl)cc2)(C2CC2)N1 (centres undefined)
Activity [1]: inactive
Activity [2]: Non-toxic
MTC [3]: 300 mg/kg
Activity [4]: inactive
Activity [5]: inactive
TD50 [6]: > 135 mg/kg
ED50 [7]: 85 mg/kg
Time [8]: 2 h
Activity [9]: Non-toxic
Activity [10]: Non-toxic
Activity [11]: Non-toxic
Activity [12]: Non-toxic
Activity [13]: Non-toxic
minimal effective dose [14]: 30 mg/kg
minimal effective dose [15]: 300 mg/kg
Activity [16]: inactive
minimal effective dose [17]: 300 mg/kg

logP [18]: 3.71
Structure (SMILES): O=C1NC(c2ccc(Cl)cc2)(C2CC2)C(=O)N1CN1CCc2ccccc2C1 (centres undefined)
Activity [19]: Non-toxic
Activity [2]: Non-toxic
Activity [20]: inactive
Activity [16]: inactive
minimal effective dose [17]: 300 mg/kg

logP [18]: 2.17
Structure (SMILES): O=C(c1ccccc1)N1CCN(CN2C(=O)NC(c3ccccc3)(C3CC3)C2=O)CC1 (centres undefined)
Activity [21]: Non-toxic
Activity [22]: Non-toxic
Activity [23]: Non-toxic
Activity [24]: Non-toxic
Activity [25]: Non-toxic
Activity [26]: inactive
Activity [27]: inactive
Activity [19]: Non-toxic
Activity [2]: Non-toxic
minimal effective dose [17]: 100 mg/kg
minimal effective dose [28]: 100 mg/kg
Activity [29]: Toxic
Activity [30]: Toxic

Structure (SMILES): O=C1NC(c2ccc(Cl)cc2)(C2CC2)C(=O)N1CN1CCN(c2ccccc2)CC1 (centres undefined)
Activity [2]: Non-toxic
Activity [20]: inactive
Activity [16]: inactive
minimal effective dose [17]: 100 mg/kg
Activity [31]: Toxic

logP [18]: 3.65
Structure (SMILES): O=C(OCc1ccccc1)N1CCN(CN2C(=O)NC(c3ccc(Cl)cc3)(C3CC3)C2=O)CC1 (centres undefined)
MTC [3]: 300 mg/kg
MTC [32]: 300 mg/kg
Activity [20]: inactive
Activity [16]: inactive
minimal effective dose [17]: 100 mg/kg
